In assay [1] the target is T1, Disintegrin and metalloproteinase domain-containing protein 17 (Homo sapiens, UniProt P78536). Description: ADAM17 protease inhibitors, dose response, counter-screen for ADAM10 exosite inhibitor project, biochemical, quenched FRET substrate (AID 743253). In general terms: The purpose of a counterscreen is to sort out artefacts and off-target activity.
For assay [2], the target named is COUP transcription factor 2 (Homo sapiens, UniProt P24468). The assay is described as follows: Luminescence-based cell-based high throughput dose response assay to identify inhibitors of COUP-TFII (NR2F2). The class given is functional.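 Further: HEK293 cells transiently cotransfected with COUP-TFII expression vector and reporter; luciferase reporter luminescence driven by COUP-TFII from the pX2-168 reporter plasmid.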
For assay [3], the target named is T2, Heat shock factor protein 1 (Mus musculus, UniProt P38532).
T2 sequence (P38532 whole entry): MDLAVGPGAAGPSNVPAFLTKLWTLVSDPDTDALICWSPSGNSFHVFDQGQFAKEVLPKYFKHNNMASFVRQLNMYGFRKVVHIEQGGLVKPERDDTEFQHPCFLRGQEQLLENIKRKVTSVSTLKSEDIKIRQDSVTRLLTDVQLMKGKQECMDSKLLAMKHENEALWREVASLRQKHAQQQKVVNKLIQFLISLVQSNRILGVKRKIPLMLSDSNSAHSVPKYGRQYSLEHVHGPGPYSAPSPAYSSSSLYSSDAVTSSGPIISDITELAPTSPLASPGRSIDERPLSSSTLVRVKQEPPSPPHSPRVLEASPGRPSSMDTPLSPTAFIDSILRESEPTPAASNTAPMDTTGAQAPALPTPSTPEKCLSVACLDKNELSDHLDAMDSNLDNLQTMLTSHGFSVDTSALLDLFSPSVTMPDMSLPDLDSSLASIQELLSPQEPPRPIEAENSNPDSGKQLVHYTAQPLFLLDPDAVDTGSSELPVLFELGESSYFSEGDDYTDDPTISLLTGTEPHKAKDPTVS
Description: inhibition of MG132-induced HSE-luciferase signal, confirmation, cell-based, NIH3T3, luminescence, dose retest (AID 2382).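 Further: NIH3T3 fibroblasts with HSF1-driven luciferase reporter stressed by proteasome inhibitor MG132; luminescence from HSF1-driven luciferase expression after 8 hours of MG132 stress.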 It is filed as functional.

The target of the next assay is Major prion protein (Homo sapiens, UniProt P04156). It is filed as functional, cell-based.
Assay [4] in a line: cells.
In assay [5] the target is Delta-type opioid receptor (Homo sapiens, UniProt P41143). The assay is described as follows: Late-stage results from the probe development effort to identify antagonists of OPRK1: fluorescence-based cell-based dose response OPRD1 counterscreen, Set 2. It is filed as functional.
A further assay has as its target Mu-type opioid receptor (Homo sapiens, UniProt P35372). The assay is described as follows: Late-stage results from the probe development effort to identify antagonists of OPRK1: luminescence-based cell-based dose response OPRM1 counterscreen, Set 2. The class given is functional.
For assay [6], the target named is Kappa-type opioid receptor (Homo sapiens, UniProt P41145). Description: Late-stage fluorescence-based cell-based dose response assay for antagonists of kappa opioid receptor 1 (OPRK1). The class given is functional.
In assay [7] the target is Sphingosine 1-phosphate receptor 1 (Homo sapiens, UniProt P21453). The assay is described as follows: Late-stage counterscreen for antagonists of kappa opioid receptor 1 (OPRK1): fluorescence-based cell-based dose response assay to identify antagonists of Sphingosine 1-Phosphate Receptor 1 (S1P1). It is filed as functional.
The next assay relates to HeLa. The assay is described as follows: HeLa cell cytotoxicity, dose response, cytotoxicity control for MITF activator project, CellTiter-Glo luminescence, cherry-pick samples (AID 540259). It is filed as functional, cell-based. The note with it: Homo sapiens. For orientation: Cellular ATP, detected with luciferase, serves as a proxy for viable cell number.
Assay [8] is described as follows: cells. The class given is functional, cell-based.
Assay [9] addresses SWI/SNF-related matrix-associated actin-dependent regulator of chromatin subfamily A member 2 (Homo sapiens, UniProt P51531). The assay is described as follows: Luminescence-based cell-based high throughput dose response assay to identify activators of the function of SWI/SNF related, matrix associated, actin dependent regulator of chromatin, subfamily a, member 2 (SMARCA2, BRM). It is filed as functional.

Assay [10] in a line: Counterscreen for activators of the function of SWI/SNF related, matrix associated, actin dependent regulator of chromatin, subfamily a, member 2 (SMARCA2, BRM): Luminescence-based cell-based high throughput dose response assay to identify non-selective compounds using the VP16 reporter assay. It is filed as functional.
The target of assay [11] is T3, Long-chain-fatty-acid--AMP ligase FadD28 (Mycobacterium tuberculosis, UniProt P9WQ59).
T3 sequence (P9WQ59 whole entry): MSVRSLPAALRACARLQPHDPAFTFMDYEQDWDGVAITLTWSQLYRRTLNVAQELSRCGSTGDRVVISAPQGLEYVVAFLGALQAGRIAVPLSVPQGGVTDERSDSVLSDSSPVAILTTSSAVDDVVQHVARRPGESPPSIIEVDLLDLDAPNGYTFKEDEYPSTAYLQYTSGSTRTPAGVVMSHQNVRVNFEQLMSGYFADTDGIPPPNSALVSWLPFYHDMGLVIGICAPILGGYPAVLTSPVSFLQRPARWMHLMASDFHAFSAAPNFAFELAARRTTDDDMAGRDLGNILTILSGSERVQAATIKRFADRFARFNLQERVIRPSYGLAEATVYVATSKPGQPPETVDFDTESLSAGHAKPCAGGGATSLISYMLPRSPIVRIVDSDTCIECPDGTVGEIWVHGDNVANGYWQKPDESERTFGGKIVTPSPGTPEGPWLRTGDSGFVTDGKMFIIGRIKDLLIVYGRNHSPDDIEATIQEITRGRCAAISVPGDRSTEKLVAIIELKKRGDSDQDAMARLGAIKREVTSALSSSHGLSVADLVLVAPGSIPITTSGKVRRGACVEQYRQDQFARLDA
The assay is described as follows: Fluorescence polarization aasay to screen for inhibitors that compete for the binding of FadD28 to a bisubstrate Measured in Biochemical System Using Plate Reader - 2147-01_Inhibitor_Dose_CherryPick_Activity. The class given is functional, Mycobacterium tuberculosis H37Rv. In general terms: Polarisation of emitted light reports the rotation of a fluorescent probe.

Assay [12] concerns the target T4, Nuclear receptor subfamily 0 group B member 1 (Homo sapiens, UniProt P51843).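 Further: HEK293T cells transfected with SF-1 and DAX-1 plus StAR promoter luciferase reporter.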
T4 sequence (P51843 whole entry): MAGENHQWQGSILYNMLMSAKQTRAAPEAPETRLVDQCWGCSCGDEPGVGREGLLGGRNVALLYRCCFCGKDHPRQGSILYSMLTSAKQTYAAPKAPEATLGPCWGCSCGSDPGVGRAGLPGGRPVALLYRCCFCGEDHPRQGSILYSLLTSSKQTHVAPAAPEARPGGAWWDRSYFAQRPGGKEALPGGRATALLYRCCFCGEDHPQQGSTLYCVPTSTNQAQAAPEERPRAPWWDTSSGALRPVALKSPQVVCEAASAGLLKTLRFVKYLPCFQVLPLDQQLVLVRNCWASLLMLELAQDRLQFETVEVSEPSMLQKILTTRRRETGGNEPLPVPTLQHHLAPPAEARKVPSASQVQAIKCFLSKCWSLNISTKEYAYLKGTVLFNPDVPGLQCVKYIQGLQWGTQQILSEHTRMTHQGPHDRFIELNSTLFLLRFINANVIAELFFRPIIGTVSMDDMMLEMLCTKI
The class given is functional, cell-based.

The test system of a further assay is Vero. The assay is described as follows: Vero cell toxicity, dose response, cytotoxicity control, plate reader, cherry-pick samples (AID 687020). The class given is functional, cell-based. The note with it: Chlorocebus sabaeus.
Assay [13] is described as follows: ADAM10 protease inhibitors, dose response, selectivity assay for ADAM17 exosite inhibitor project, biochemical, FRET peptide substrate, recombinant human ADAM10 (AID 743259).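 Further: ADAM10 enzyme cleaving a FRET peptide substrate.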
Assay [14] deals with T1, Disintegrin and metalloproteinase domain-containing protein 17. Description: exosite inhibitors of ADAM17, dose response, biochemical (AID 743260).
Assay [15] is described as follows: MC4R antagonists, dose response, counter-screen for LGR2 antagonist project, cell-based, plate reader, cherry pick (AID 743444).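 Further: transfected HEK 293 cells stimulated with alpha-MSH peptide; potency of inhibitors of the alpha-MSH evoked signal.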 It is filed as functional.
A short description of assay [16]: LGR2 antagonists, dose response, cell-based, HEK293, CRE-luciferase reporter, cherry pick, set 2 (AID 743343).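 Further: transfected cells were stimulated with diluted bursicon conditioned medium after compound addition.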 The class given is functional.
Assay [17] is described as follows: HEK293 cell cytotoxicity, dose response, cytotoxicity control, plate reader, cherry-picked samples (AID 743446). The class given is functional, cell-based.
Assay [18] can be described thus: A549 cell cytotoxicity, dose response, cytotoxicity control, plate reader, cherry-pick, antagonist series (AID 743412). It is filed as functional, cell-based.
The nature of assay [19]: HepG2 cell cytotoxicity, dose response, cytotoxicity control, plate reader, cherry-pick, antagonist series (AID 743416). The class given is functional, cell-based.
A further assay addresses Paired box protein Pax-8 (Homo sapiens, UniProt Q06710). Description: inhibitors of PAX8-driven TPO luciferase reporter, dose response, RMG-I cells, cherry-pick (AID 687027).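 Further: luciferase reporter driven by Pax8 target thyroperoxidase promoter measured by SteadyGlo luminescence.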 It is filed as functional, cell-based.
A short description of assay [20]: NIH:OVCAR-3 ovarian cancer cell cytotoxicity, dose response, PAX8 inhibitor project, plate reader, dry powder samples (AID 743044). It is filed as functional, cell-based.
The nature of assay [21]: cytotoxicity in OVCAR8 ovarian cancer cells, dose response, PAX8 project, cell-based, plate reader, dry powder samples (AID 743197). The following applies: OVCAR-8. It is filed as functional.
Assay [22] in a line: IOSE-T80 ovarian epithelial cell cytotoxicity, dose response, cytotoxicity control for PAX8 inhibitor project, plate reader, dry powder samples (AID 743045). The class given is functional, cell-based.

Active and inactive are the calls of the source. A value given as a limit tells only on which side of the number the result lay.

Turning to `CC(C)(C)c1ccc(-c2cc(-c3ccccc3O)n[nH]2)cc1`, the IC50 – broadly, the concentration that gives 50% inhibition – in assay [1] is > 69.6 µM (inactive); in assay [2], 47.8 µM (inactive). In [3], the EC50 (as a rule, the midpoint of the concentration-response curve) is 1.81 µM (active).

For the molecule `Cc1onc(-c2c(F)cccc2Cl)c1C(=O)Nc1nnc(C(F)(F)F)s1`, the IC50 on Major prion protein was 2.79 µM (active); in “cells [4]”, > 138 µM (inactive).

With `CN(C)c1cc(NC(=O)Nc2ccccc2)c2ccccc2n1`, the IC50 was 69.5 µM (inactive) in assay [5], > 50 µM (inactive) at Mu-type opioid receptor, 32.6 µM (inactive) in assay [6] and 40 µM (inactive) in assay [7].

For the molecule `CCc1cccc2c(C(=O)CN3C(=O)NC4(CCCCCC4)C3=O)c[nH]c12`, the AC50 (commonly the concentration giving half of the maximal activity seen) in the assay with HeLa is 99.7 µM (active); in [11], 4.33 µM (active). The IC50 (in “cells [8]”; in assay [12]) was > 67.6 µM (inactive) in each case. Further, the EC50 in assay [9] and in [10] was > 91.2 µM (inactive) in each case.

For `Cc1cccc(N(C(=O)Cn2nnc3ccccc32)C(C(=O)NC(C)(C)C)c2ccsc2)c1` (configuration not stated), in the assay on Vero, the AC50 was 31.3 µM (active).

As to `C[C@H](CO)N1C[C@H](C)[C@H](CN(C)S(=O)(=O)c2cccs2)Oc2ccc(NC(=O)Nc3ccc4c(c3)OCO4)cc2CC1=O`, the IC50 in assay [13] was 13.8 µM (inactive); in [14] it was > 69.5 µM (inactive).

As for `CCN1CCN(Cc2ccc(NC(=O)c3cccc(-c4ccc5nc(NC(=O)C6CC6)sc5n4)c3)cc2C(F)(F)F)CC1`, the AC50 is 2.18 µM (active) in assay [15]; 5.27 µM (active) in assay [16]; 8.7 µM (active) in assay [17]; 5.08 µM (active) in assay [18]; 3.22 µM (active) in assay [19].

Take `CN1c2ccc(-c3ccccc3)cc2[C@H]2[C@H](CCN2C(=O)NC2CCCCC2)[C@@H]1CO`: the AC50 on Paired box protein Pax-8 was 11.5 µM (active); in assay [20], 23.4 µM (active); in assay [21], 25.3 µM (active); in assay [22], 53.9 µM (active).
